In ChEMBL document CHEMBL5303765, “Data for DCP probe BAY-7081” (2023):

Assays:
Details in all cases: for ΔTm: Compound concentration 10.0 uM
[1] = biological target: Serine/threonine-protein kinase B-raf (Homo sapiens) (UniProt P15056); test: BRAF SGC Tm panel (DSF)
[2] = biological target: T1, Cyclin-G-associated kinase (Homo sapiens) (UniProt O14976); test: GAK SGC Tm panel (DSF)
T1 sequence (whole entry): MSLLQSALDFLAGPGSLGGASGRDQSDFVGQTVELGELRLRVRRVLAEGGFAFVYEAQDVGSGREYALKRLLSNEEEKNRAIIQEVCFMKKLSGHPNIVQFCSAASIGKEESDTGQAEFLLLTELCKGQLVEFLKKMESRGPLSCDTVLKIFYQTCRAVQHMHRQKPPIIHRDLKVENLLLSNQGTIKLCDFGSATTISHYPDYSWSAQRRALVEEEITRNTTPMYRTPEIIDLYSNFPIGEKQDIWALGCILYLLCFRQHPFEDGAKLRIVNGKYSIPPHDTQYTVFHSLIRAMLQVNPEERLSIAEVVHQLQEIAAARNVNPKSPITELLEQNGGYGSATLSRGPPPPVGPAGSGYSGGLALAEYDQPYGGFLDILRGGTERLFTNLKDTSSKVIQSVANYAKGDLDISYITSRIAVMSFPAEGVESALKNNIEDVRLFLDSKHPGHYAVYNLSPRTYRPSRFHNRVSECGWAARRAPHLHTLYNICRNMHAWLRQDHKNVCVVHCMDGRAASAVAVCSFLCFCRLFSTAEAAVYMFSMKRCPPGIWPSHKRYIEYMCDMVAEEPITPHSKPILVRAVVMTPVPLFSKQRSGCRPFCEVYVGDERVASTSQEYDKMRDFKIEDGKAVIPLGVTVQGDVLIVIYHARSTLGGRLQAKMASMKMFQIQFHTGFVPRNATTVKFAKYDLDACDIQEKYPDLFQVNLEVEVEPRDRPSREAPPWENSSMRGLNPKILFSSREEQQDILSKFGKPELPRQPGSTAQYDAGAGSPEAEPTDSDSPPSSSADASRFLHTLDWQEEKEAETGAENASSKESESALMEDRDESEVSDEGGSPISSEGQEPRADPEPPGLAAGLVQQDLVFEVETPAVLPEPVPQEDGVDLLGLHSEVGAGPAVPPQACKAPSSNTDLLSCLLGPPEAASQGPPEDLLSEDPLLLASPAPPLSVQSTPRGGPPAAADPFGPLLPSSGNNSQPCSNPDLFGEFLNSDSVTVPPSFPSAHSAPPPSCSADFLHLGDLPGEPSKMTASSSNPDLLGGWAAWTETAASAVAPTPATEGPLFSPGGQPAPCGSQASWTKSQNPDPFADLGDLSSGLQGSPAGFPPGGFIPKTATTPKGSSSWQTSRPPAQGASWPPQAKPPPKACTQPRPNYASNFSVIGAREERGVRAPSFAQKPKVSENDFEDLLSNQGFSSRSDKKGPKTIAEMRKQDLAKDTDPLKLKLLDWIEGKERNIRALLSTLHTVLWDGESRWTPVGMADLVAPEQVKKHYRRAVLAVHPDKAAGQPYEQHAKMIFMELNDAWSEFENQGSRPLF

[3] = biological target: T2, Transcription intermediary factor 1-alpha (Homo sapiens) (UniProt O15164); test: TIF1 SGC Tm panel (DSF)
T2 sequence (whole entry): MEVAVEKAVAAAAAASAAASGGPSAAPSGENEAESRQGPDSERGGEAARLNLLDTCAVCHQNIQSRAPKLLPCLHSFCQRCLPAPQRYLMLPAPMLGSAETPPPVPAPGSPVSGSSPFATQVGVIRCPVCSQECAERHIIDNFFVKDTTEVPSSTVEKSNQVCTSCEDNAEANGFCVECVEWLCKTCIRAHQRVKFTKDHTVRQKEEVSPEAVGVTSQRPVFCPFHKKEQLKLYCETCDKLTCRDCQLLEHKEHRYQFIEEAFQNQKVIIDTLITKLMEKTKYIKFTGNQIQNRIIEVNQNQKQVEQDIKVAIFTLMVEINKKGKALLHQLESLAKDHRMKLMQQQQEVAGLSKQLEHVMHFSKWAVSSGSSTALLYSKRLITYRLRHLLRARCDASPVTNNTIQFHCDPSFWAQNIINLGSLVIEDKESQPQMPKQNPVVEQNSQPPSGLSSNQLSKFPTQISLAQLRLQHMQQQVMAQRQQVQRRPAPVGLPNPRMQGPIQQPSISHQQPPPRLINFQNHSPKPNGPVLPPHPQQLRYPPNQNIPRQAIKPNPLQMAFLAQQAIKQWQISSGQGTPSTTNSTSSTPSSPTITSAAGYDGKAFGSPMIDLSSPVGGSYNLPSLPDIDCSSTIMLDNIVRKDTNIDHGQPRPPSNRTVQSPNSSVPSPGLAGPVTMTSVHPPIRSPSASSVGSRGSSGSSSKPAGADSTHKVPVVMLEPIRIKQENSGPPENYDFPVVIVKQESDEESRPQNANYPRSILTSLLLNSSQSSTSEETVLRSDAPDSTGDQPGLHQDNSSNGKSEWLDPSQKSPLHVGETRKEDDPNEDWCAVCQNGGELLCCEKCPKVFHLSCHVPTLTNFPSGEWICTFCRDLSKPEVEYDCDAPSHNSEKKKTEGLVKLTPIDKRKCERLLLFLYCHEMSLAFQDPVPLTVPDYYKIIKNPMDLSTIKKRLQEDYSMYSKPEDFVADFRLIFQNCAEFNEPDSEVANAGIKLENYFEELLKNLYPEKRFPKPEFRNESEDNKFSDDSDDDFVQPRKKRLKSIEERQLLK

[4] = biological target: T3, Dual specificity mitogen-activated protein kinase kinase 4 (Homo sapiens) (UniProt P45985); test: MAP2K4 SGC Tm panel (DSF)
T3 sequence (whole entry): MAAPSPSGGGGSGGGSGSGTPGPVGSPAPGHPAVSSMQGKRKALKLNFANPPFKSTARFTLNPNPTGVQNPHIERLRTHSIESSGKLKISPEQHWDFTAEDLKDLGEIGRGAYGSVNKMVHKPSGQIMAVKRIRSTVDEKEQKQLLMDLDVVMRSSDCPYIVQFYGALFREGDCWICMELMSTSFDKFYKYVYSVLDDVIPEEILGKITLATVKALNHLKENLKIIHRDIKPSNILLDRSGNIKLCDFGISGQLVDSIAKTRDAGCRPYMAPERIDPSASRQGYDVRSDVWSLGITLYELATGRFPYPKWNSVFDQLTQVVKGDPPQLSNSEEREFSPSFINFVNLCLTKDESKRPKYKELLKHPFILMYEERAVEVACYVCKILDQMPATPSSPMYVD

Sequence of Serine/threonine-protein kinase B-raf (Homo sapiens) (P15056 whole entry): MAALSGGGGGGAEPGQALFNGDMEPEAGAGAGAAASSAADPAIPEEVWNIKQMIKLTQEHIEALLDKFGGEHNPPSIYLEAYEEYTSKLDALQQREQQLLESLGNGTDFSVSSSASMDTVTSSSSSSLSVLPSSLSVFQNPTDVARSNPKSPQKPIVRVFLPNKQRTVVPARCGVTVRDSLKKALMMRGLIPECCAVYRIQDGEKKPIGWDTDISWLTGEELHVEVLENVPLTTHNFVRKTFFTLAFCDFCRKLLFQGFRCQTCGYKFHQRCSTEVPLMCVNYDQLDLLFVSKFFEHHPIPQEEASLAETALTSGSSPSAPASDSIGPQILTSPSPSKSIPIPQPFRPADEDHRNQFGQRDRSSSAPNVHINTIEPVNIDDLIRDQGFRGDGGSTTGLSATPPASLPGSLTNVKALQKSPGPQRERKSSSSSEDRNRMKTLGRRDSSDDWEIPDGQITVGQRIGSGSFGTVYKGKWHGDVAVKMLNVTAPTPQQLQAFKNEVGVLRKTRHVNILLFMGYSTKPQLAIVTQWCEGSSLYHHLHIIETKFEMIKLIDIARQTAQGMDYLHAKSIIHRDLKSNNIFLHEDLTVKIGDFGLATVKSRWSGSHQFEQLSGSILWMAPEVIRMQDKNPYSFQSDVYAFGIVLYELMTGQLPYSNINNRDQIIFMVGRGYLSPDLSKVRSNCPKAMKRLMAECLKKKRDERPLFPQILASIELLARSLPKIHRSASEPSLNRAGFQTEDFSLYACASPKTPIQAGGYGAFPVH

| SMILES | delta Tm Staurosporine positive control [1] | ΔTm [1] | delta Tm Staurosporine positive control [2] | ΔTm [2] | delta Tm Staurosporine positive control [3] | ΔTm [3] | delta Tm Staurosporine positive control [4] | ΔTm [4] |
| --- | --- | --- | --- | --- | --- | --- | --- | --- |
| CCC[C@H]1CNCc2c1[nH]c(=O)c(C#N)c2N1CCC2(CC1)CC2 | 1.08 | -0.134 | 9.89 | -1.15 | 0.0394 | -0.211 | 11.8 | -0.306 |
| CCC[C@@H]1CNCc2c1[nH]c(=O)c(C#N)c2N1CCC2(CC1)CC2 | 1.08 | -0.0823 | 9.89 | -1.01 | 0.0394 | -0.244 | 11.8 | -0.34 |
